Measurements: publication PMC9481151, “Discovery of new symmetrical and asymmetrical nitrile-containing 1,4-dihydropyridine derivatives as dual kinases and P-glycoprotein inhibitors: synthesis, in vitro assays, and in silico studies” (Journal of Enzyme Inhibition and Medicinal Chemistry, 2022)

How the values were obtained:
[1] = tested on: HCT-116 cells; assay: In vitro cytotoxicity; details: Homo sapiens, HCT-116, read-out: Cytotoxicity IC50, HCT-116
[2] = tested on: drug-resistant HCT-116/ADR cells; assay: Potentiation of DOX cytotoxicity (reversal DOX effect, P-gp modulation); type: cell-based, human; details: IC50 (DOX) without modulator / IC50 (DOX) with modulator
[3] = tested on: HCT-116/ADR cells; assay: cells; details: Homo sapiens, HCT-116, read-out: Cytotoxicity IC50, HCT-116/ADR
[4] = biological target: BTK (Homo sapiens, UniProt Q06187); assay: BTK inhibitory activity; type: biochemical; details: (IC50 lapatinib/IC50 Compound)*100
BTK, sequence (Q06187 whole entry): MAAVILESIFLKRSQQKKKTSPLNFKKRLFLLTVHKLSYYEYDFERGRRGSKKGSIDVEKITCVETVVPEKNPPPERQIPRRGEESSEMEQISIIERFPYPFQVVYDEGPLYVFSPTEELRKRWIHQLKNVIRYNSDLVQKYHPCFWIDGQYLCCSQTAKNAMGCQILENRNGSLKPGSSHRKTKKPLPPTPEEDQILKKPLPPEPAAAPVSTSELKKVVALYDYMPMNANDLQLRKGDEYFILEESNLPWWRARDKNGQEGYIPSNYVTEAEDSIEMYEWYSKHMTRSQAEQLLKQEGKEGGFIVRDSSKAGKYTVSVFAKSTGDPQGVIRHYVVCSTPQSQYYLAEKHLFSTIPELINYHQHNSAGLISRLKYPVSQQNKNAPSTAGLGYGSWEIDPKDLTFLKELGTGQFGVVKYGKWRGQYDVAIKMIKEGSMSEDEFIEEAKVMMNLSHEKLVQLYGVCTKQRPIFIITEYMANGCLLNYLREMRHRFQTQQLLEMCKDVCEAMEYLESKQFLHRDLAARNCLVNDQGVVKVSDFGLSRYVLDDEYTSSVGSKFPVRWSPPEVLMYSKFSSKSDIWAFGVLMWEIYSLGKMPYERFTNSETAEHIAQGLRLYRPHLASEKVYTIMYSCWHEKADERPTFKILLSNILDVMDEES

[5] = biological target: HER-2 (Homo sapiens, UniProt P04626); assay: HER-2 kinase inhibitory activity; type: biochemical; details: (IC50 lapatinib/IC50 Compound)*100
HER-2, sequence (P04626 23-1255): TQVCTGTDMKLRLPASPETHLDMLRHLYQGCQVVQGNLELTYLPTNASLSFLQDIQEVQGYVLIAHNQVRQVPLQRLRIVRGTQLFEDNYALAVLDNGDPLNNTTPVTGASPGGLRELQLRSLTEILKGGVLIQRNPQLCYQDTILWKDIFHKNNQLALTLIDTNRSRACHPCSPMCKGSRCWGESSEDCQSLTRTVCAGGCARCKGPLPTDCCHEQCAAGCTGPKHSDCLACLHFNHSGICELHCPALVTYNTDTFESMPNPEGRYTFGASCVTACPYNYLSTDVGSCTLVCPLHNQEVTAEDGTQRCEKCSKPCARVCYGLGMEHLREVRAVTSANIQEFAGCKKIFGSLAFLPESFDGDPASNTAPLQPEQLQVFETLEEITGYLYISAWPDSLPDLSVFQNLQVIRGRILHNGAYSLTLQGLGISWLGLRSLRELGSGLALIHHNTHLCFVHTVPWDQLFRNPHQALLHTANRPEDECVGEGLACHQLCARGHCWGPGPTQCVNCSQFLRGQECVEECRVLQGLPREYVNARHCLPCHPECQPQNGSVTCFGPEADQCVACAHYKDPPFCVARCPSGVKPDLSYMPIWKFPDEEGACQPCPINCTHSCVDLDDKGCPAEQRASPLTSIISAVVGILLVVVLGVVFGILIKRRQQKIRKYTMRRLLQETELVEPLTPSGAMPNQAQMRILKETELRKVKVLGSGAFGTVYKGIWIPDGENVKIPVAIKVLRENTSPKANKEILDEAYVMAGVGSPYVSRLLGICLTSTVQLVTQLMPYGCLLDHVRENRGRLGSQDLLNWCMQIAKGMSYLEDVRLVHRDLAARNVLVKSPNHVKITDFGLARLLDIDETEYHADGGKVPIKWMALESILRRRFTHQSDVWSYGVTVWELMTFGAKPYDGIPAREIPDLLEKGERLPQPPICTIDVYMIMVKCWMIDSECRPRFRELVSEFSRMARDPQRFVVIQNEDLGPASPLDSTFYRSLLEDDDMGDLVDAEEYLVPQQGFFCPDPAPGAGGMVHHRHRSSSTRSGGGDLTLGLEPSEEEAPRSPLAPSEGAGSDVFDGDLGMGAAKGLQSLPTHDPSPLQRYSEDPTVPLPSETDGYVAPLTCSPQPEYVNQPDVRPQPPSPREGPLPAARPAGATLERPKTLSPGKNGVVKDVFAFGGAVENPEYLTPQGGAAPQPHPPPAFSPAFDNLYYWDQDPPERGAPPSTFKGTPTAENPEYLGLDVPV

| SMILES | IC50 [1] [µM] | RF (reversal fold activity) [2] | IC50 [3] [µM] | BTK Potency [4] [%] | HER-2 Potency [5] [%] |
| --- | --- | --- | --- | --- | --- |
| COc1cccc2c1C(=O)c1c(O)c3c(c(O)c1C2=O)C[C@@](O)(C(=O)CO)C[C@@H]3O[C@H]1C[C@H](N)[C@H](O)[C@H](C)O1 [DOX, Doxorubicin, reference compound] | 1.15 ± 0.43 | 1 | 16.91 ± 0.14 | – | – |
| CS(=O)(=O)CCNCc1ccc(-c2ccc3ncnc(Nc4ccc(OCc5cccc(F)c5)c(Cl)c4)c3c2)o1 [Lapatinib, reference compound] | – | – | – | 100.0 | 100.0 |
